The NIST ThermoML archive (doi:10.1007/s10765-012-1383-x)
Numbers after ± are expanded uncertainties.

Conditions: Fluid (supercritical or subcritical phases), Bellows volumetry

CC(C)C [2-methylpropane]
mass density [kg/m3]
Conditions	360 K	400 K	440 K	500 K	550 K	600 K
50000 kPa	568.86 ± 0.76	539.91 ± 0.88	512.43 ± 0.76	472.16 ± 0.76	440.41 ± 0.76	410.52 ± 0.76
60000 kPa	579.25 ± 0.88	552.31 ± 0.88	526.93 ± 0.76	489.95 ± 0.76	460.74 ± 0.76	433.26 ± 0.76
70000 kPa	588.53 ± 0.88	563.06 ± 0.88	539.33 ± 0.76	504.87 ± 0.76	477.5 ± 0.76	451.97 ± 0.76
80000 kPa	597.04 ± 0.88	572.73 ± 0.88	550.28 ± 0.76	517.77 ± 0.76	492.04 ± 0.76	467.84 ± 0.76
90000 kPa	604.5 ± 0.88	581.56 ± 0.88	559.97 ± 0.76	529.04 ± 0.76	504.6 ± 0.76	481.73 ± 0.76
100000 kPa	611.74 ± 0.76	589.43 ± 0.76	568.96 ± 2.9	539.24 ± 2.9	515.83 ± 2.9	494.03 ± 2.9
120000 kPa	624.36 ± 0.76	603.57 ± 0.76	584.57 ± 2.9	557 ± 2.9	535.44 ± 2.9	515.09 ± 2.9
140000 kPa	635.51 ± 0.76	615.95 ± 0.76	598.12 ± 2.9	572.25 ± 2.9	551.94 ± 2.9	532.7 ± 2.9
160000 kPa	645.68 ± 0.76	627.09 ± 0.76	610.19 ± 2.9	585.63 ± 2.9	566.41 ± 2.9	548.14 ± 2.9
180000 kPa	655.03 ± 0.76	637.21 ± 0.76	621.17 ± 2.9	597.32 ± 2.9	579.21 ± 2.9	561.73 ± 2.9
200000 kPa	663.47 ± 0.76	646.22 ± 0.76	631.03 ± 2.9	607.94 ± 2.9	590.74 ± 2.9	573.91 ± 2.9

CCCC [butane]
mass density [kg/m3]
Conditions	360 K	400 K	440 K	500 K	550 K	600 K
50000 kPa	585.47 ± 0.88	556.11 ± 0.88	527.49 ± 0.76	485.76 ± 0.76	452.74 ± 0.76	421.67 ± 0.76
60000 kPa	595.41 ± 0.88	567.8 ± 0.88	541.19 ± 0.76	502.86 ± 0.76	472.65 ± 0.76	444.04 ± 0.76
70000 kPa	604.19 ± 0.88	578.11 ± 0.88	552.99 ± 0.76	517.01 ± 0.76	489.04 ± 0.76	462.25 ± 0.76
80000 kPa	612.02 ± 0.88	587.28 ± 0.88	563.51 ± 0.76	529.24 ± 0.76	503.05 ± 0.76	477.92 ± 0.76
90000 kPa	619.58 ± 0.88	595.58 ± 0.88	572.93 ± 0.76	540.26 ± 0.76	515.43 ± 0.76	491.53 ± 0.76
100000 kPa	626.29 ± 0.76	603.28 ± 0.76	581.43 ± 2.9	550.18 ± 2.9	526.47 ± 2.9	503.41 ± 2.9
120000 kPa	638.57 ± 0.76	617 ± 0.76	596.67 ± 2.9	567.64 ± 2.9	545.49 ± 2.9	524.18 ± 2.9
140000 kPa	649.66 ± 0.76	629.05 ± 0.76	609.84 ± 2.9	582.51 ± 2.9	561.8 ± 2.9	541.56 ± 2.9
160000 kPa	659.24 ± 0.76	639.75 ± 0.76	621.49 ± 2.9	595.57 ± 2.9	575.61 ± 2.9	556.81 ± 2.9
180000 kPa	668.57 ± 0.76	649.69 ± 0.76	632.12 ± 2.9	607.21 ± 2.9	588.11 ± 2.9	570.23 ± 2.9
200000 kPa	676.57 ± 0.76	658.6 ± 0.76	641.85 ± 2.9	617.68 ± 2.9	599.35 ± 2.9	582.23 ± 2.9

CCC [propane]
mass density [kg/m3]
Conditions	360 K	400 K	440 K	500 K	550 K	600 K
50000 kPa	520.66 ± 0.88	488.73 ± 0.88	457.63 ± 0.76	413.41 ± 0.76	380.04 ± 0.76	349.68 ± 0.76
60000 kPa	532.63 ± 0.88	503.01 ± 0.88	474.47 ± 0.76	434.04 ± 0.76	403.51 ± 0.76	375.39 ± 0.76
70000 kPa	543.15 ± 0.88	515.19 ± 0.88	488.72 ± 0.76	450.94 ± 0.76	422.59 ± 0.76	396.1 ± 0.76
80000 kPa	552.56 ± 0.88	525.98 ± 0.88	500.95 ± 0.76	465.53 ± 0.76	438.76 ± 0.76	413.71 ± 0.76
90000 kPa	560.92 ± 0.88	535.66 ± 0.88	511.84 ± 0.76	477.92 ± 0.76	452.84 ± 0.76	428.88 ± 0.76
100000 kPa	568.67 ± 0.76	544.28 ± 0.76	521.48 ± 2.9	489.12 ± 2.9	464.72 ± 2.9	442.26 ± 2.9
120000 kPa	582.46 ± 0.76	559.78 ± 0.76	538.35 ± 2.9	508.54 ± 2.9	485.88 ± 2.9	465.07 ± 2.9
140000 kPa	594.1 ± 0.76	573.12 ± 0.76	552.91 ± 2.9	524.91 ± 2.9	503.64 ± 2.9	484.26 ± 2.9
160000 kPa	605.2 ± 0.76	584.9 ± 0.76	565.72 ± 2.9	539.2 ± 2.9	518.92 ± 2.9	500.33 ± 2.9
180000 kPa	614.83 ± 0.76	595.54 ± 0.76	577.17 ± 2.9	551.84 ± 2.9	532.53 ± 2.9	514.78 ± 2.9
200000 kPa	624.04 ± 0.76	605.48 ± 0.76	587.69 ± 2.9	563.13 ± 2.9	544.69 ± 2.9	527.68 ± 2.9
